Source: article PMC4303209, “A novel phosphatidylinositol 3-kinase (PI3K) inhibitor directs a potent FOXO-dependent, p53-independent cell cycle arrest phenotype characterized by the differential induction of a subset of FOXO-regulated genes” (Breast Cancer Research : BCR, 2014)

Tested on: MCF-7 breast cancer cells
Assay: Microarray gene expression analysis (Agilent whole human genome 4 x 44K; compound vs DMSO, LIMMA log2 fold change)
Assay type: cell-based
Details: Apoptosis genes

Oc1cccc(-c2nc(N3CCOCC3)c3oc4ncccc4c3n2)c1 [PI-103]
ITGB3BP log2FC (Gene 23421): 0.693 | RYBP log2FC (Gene 23429): 0.361 | HEY2 log2FC (Gene 23493): -0.116 | SCRIB log2FC (Gene 23513): 0.029 | CLCF1 log2FC (Gene 23529): -0.682 | PRAME log2FC (Gene 23532): -0.450 | DDAH2 log2FC (Gene 23564): 0.378 | ZNF346 log2FC (Gene 23567): -0.012 | CASP14 log2FC (Gene 23581): -0.041 | NUP62 log2FC (Gene 23636): -0.627 | PPP1R15A log2FC (Gene 23645): 0.513 | AIPL1 log2FC (Gene 23746): 0.177 | FKBP8 log2FC (Gene 23770): 0.044 | BCL2L13 log2FC (Gene 23786): 0.110 | MTCH1 log2FC (Gene 23787): 0.149 | NGEF log2FC (Gene 25791): 0.857 | SPDEF log2FC (Gene 25803): -0.186 | TNFAIP8 log2FC (Gene 25816): 0.677 | PRDX5 log2FC (Gene 25824): 0.047 | BRMS1 log2FC (Gene 25855): -0.476 | SIN3A log2FC (Gene 25942): 0.891 | HIGD1A log2FC (Gene 25994): -0.106 | SERBP1 log2FC (Gene 26135): 0.167 | NOC2L log2FC (Gene 26155): -0.855 | TIAM2 log2FC (Gene 26230): 0.365 | AATF log2FC (Gene 26574): -0.415 | GREM1 log2FC (Gene 26585): -0.405 | CKAP2 log2FC (Gene 26586): 0.629 | CYFIP2 log2FC (Gene 26999): 0.053 | NGFRAP1 log2FC (Gene 27018): 0.277 | ANKRD1 log2FC (Gene 27063): 0.350 | GHITM log2FC (Gene 27069): 0.386 | BBC3 log2FC (Gene 27113): 2.072 | CIDEB log2FC (Gene 27141): -0.033 | GLS2 log2FC (Gene 27165): 0.410 | TNFRSF21 log2FC (Gene 27242): -1.071 | PDCD4 log2FC (Gene 27250): 1.703 | KLHL20 log2FC (Gene 27252): 0.115 | CECR2 log2FC (Gene 27443): -0.150 | DBNL log2FC (Gene 28988): -0.248 | HIPK2 log2FC (Gene 28996): -0.140 | SAP30BP log2FC (Gene 29115): -0.468 | LGALS13 log2FC (Gene 29124): -0.059 | CARD10 log2FC (Gene 29775): -0.449 | SENP1 log2FC (Gene 29843): 0.227 | TFPT log2FC (Gene 29844): -0.472 | PNMA3 log2FC (Gene 29944): 0.668 | UBQLN1 log2FC (Gene 29979): -0.069 | ERO1L log2FC (Gene 30001): 0.078 | SH3KBP1 log2FC (Gene 30011): 0.268 | KCNIP3 log2FC (Gene 30818): 0.232 | RRM2B log2FC (Gene 50484): 0.526 | G0S2 log2FC (Gene 50486): -0.054 | NOX4 log2FC (Gene 50507): 0.041 | CHST11 log2FC (Gene 50515): -0.946 | ARHGEF4 log2FC (Gene 50649): 0.008 | ARHGEF3 log2FC (Gene 50650): 0.506 | GLRX2 log2FC (Gene 51022): -0.261 | RPS27L log2FC (Gene 51065): 0.277 | APIP log2FC (Gene 51074): 0.039 | NDUFA13 log2FC (Gene 51079): -0.041 | GAL log2FC (Gene 51083): -0.333 | SH3GLB1 log2FC (Gene 51100): 0.561 | APH1A log2FC (Gene 51107): -0.371 | UTP11L log2FC (Gene 51118): -0.906 | IER3IP1 log2FC (Gene 51124): 0.357 | ANGPTL4 log2FC (Gene 51129): -0.819 | ING4 log2FC (Gene 51147): 1.595 | LEF1 log2FC (Gene 51176): -0.888 | BFAR log2FC (Gene 51283): 0.201 | PLAC8 log2FC (Gene 51316): -0.057 | TNFRSF12A log2FC (Gene 51330): -0.619 | ANGPT4 log2FC (Gene 51378): 0.049 | DDX41 log2FC (Gene 51428): -0.065 | GULP1 log2FC (Gene 51454): 1.663 | TRIAP1 log2FC (Gene 51499): -0.858 | ZC3HC1 log2FC (Gene 51530): 0.156 | PIAS4 log2FC (Gene 51588): -0.121 | PIGT log2FC (Gene 51604): 0.362 | TAF9B log2FC (Gene 51616): 0.327 | PTRH2 log2FC (Gene 51651): -0.374 | WWOX log2FC (Gene 51741): -0.808 | SIX4 log2FC (Gene 51804): 0.497 | IL20RA log2FC (Gene 53832): 0.039 | CYCS log2FC (Gene 54205): -0.602 | WNT4 log2FC (Gene 54361): -0.419 | DNAJC10 log2FC (Gene 54431): 0.610 | ZFAND6 log2FC (Gene 54469): 0.333 | ADAMTSL4 log2FC (Gene 54507): -0.373 | DDIT4 log2FC (Gene 54541): -1.201 | ING3 log2FC (Gene 54556): 0.724 | RRN3 log2FC (Gene 54700): -0.333 | AHI1 log2FC (Gene 54806): 0.380 | QRICH1 log2FC (Gene 54870): 0.076 | TMEM161A log2FC (Gene 54929): -0.337 | PHIP log2FC (Gene 55023): 1.071 | USP47 log2FC (Gene 55031): 0.614 | OXR1 log2FC (Gene 55074): 0.376 | UACA log2FC (Gene 55075): 0.829 | IFT57 log2FC (Gene 55081): 0.433 | XKR8 log2FC (Gene 55113): 0.252 | SHQ1 log2FC (Gene 55164): -0.188 | FAIM log2FC (Gene 55179): 0.119 | MAP1S log2FC (Gene 55201): -0.149 | ATAD3A log2FC (Gene 55210): -0.126 | STEAP3 log2FC (Gene 55240): -0.441 | RHOT1 log2FC (Gene 55288): 0.535 | RFK log2FC (Gene 55312): 0.631 | PARL log2FC (Gene 55486): -0.181 | TNFRSF19 log2FC (Gene 55504): -0.091 | CCAR1 log2FC (Gene 55749): 0.552 | PCID2 log2FC (Gene 55795): 0.323 | RNF130 log2FC (Gene 55819): 0.00747 | EAF2 log2FC (Gene 55840): 0.144 | PSENEN log2FC (Gene 55851): -0.013 | BCAP29 log2FC (Gene 55973): 0.083 | TEX11 log2FC (Gene 56159): 0.000672 | CTNNBL1 log2FC (Gene 56259): -0.138 | DIABLO log2FC (Gene 56616): -0.156 | ASAH2 log2FC (Gene 56624): -0.210 | TRIM39 log2FC (Gene 56658): -0.128 | BARHL1 log2FC (Gene 56751): -0.298 | FMN2 log2FC (Gene 56776): 0.00262 | SPHK2 log2FC (Gene 56848): -0.341 | C8orf4 log2FC (Gene 56892): 0.00123 | MEIS3 log2FC (Gene 56917): -0.122 | DUSP22 log2FC (Gene 56940): 0.209 | CIAPIN1 log2FC (Gene 57019): -0.420 | PCBP4 log2FC (Gene 57060): -0.275 | AVEN log2FC (Gene 57099): -0.638 | CAMK1D log2FC (Gene 57118): -0.189 | RTN4 log2FC (Gene 57142): -0.088 | PAK7 log2FC (Gene 57144): 0.451 | BIRC6 log2FC (Gene 57448): 0.144 | TAOK1 log2FC (Gene 57551): 0.399 | SEMA6A log2FC (Gene 57556): 0.047 | SH3RF1 log2FC (Gene 57630): -0.495 | USP28 log2FC (Gene 57646): 0.030 | GPAM log2FC (Gene 57678): -0.052 | CHD8 log2FC (Gene 57680): -0.161 | TRIB3 log2FC (Gene 57761): 0.076 | NGB log2FC (Gene 58157): -0.260 | RBM25 log2FC (Gene 58517): 0.334 | SAV1 log2FC (Gene 60485): 0.586 | PROK2 log2FC (Gene 60675): -0.058 | ELMO2 log2FC (Gene 63916): 0.585 | CIDEC log2FC (Gene 63924): 0.292 | FIGNL1 log2FC (Gene 63979): -0.235 | PERP log2FC (Gene 64065): 0.731 | MOAP1 log2FC (Gene 64112): 0.507 | RRAGC log2FC (Gene 64121): 1.556 | IFIH1 log2FC (Gene 64135): 0.872 | ZMAT3 log2FC (Gene 64393): -0.151 | ATG3 log2FC (Gene 64422): 0.194 | SUDS3 log2FC (Gene 64426): -0.027 | MICAL1 log2FC (Gene 64780): -0.125 | PLEKHG2 log2FC (Gene 64857): -0.516
